Results reported in US20240424132A1, “ATHEROSCLEROSIS-TARGETED LIPOSOME NANOCARRIER DELIVERY SYSTEM AND PREPARATION METHOD THEREFOR” (Beijing Inno Medicine Co., Ltd., priority 2021, published 2024).

Test system: arterial plaques
Assay: In vivo therapeutic effect on arterial plaques (carotid MRI, percentage of plaque volume progression)
Set-up: species or system ApoE−/− mice
Conditions: 0.66 mg rosuvastatin per kg, once every other day, 4 weeks
Protocol: (1) A normal saline solution of free rosuvastatin was prepared, and a nanodelivery system loaded with the therapeutic agent was prepared by the method described in the above Example 2. SPF-grade ApoE−/− mice (42 mice, 5-6 weeks old, weight 20±1 g) were taken as assay animals. The mice were fed an adaptive high-fat diet (fat 10% (w/w), cholesterol 2% (w/w), sodium cholate 0.5% (w/w), and the rest being normal feed for mice) for 4 weeks, and then anaesthetized via intraperitoneal injection of 1% sodium pentobarbital (prepared by adding […] of sodium pentobarbital to 100 ml of normal saline) at a dose of 40 mg/kg. Then, the mice were fixed on the surgical plate in the supine position, and disinfected around the neck with 75% (v/v) alcohol. The neck skin was cut longitudinally, and the anterior cervical gland was bluntly separated, and the beating left common carotid artery can be observed on the left side of the trachea. The common carotid artery was carefully separated to the bifurcation. A silicone cannula with a length of 2.5 mm and an inner size of 0.3 mm was placed on the outer periphery of the left common carotid artery. […] For animals in each group, carotid MRI scans were performed before and after treatment weekly to detect plaque and lumen area, and the percentage of plaque volume progression was calculated based on the scanned thickness. […]

CC(C)c1nc(N(C)S(C)(=O)=O)nc(-c2ccc(F)cc2)c1/C=C/[C@@H](O)C[C@@H](O)CC(=O)O [free rosuvastatin, rosuvastatin]
therapeutic effect on plaques, intravenous administration (intravenous): cannot exhibit the therapeutic effect of reversing plaques | therapeutic effect on plaques, oral administration (oral): cannot exhibit the therapeutic effect of reversing plaques
